The values below come from article PMC6193938, “Characterization of a novel AICARFT inhibitor which potently elevates ZMP and has anti-tumor activity in murine models” (Scientific Reports, 2018).

For one assay, the system named is A9 cells. In words: MS detection of ZMP and dUMP in cultured cells. Type of assay: cell-based, murine. The protocol: To mimic human plasma levels, low folate media is traditionally used in which the folate comes only from the defined fetal bovine serum. […] Because LSN3213128 would be dosed in mice on normal diet, cell line screening was performed under standard tissue culture conditions to identify cell lines sensitive to treatment under high folate conditions. In order to compare tissue culture values with tumor levels, an average 4 pL cell volume[36] was used to calculate cellular ZMP concentrations. In MDA-MB-231[…] cells using regular RPMI, the peak intracellular ZMP levels are about 770 μM while in the salvage deficient A9 cells ZMP is 6,500 μM. […] It is not surprising that in vivo in mice on standard chow where folate plasma levels are >10-fold lower than tissue culture that tumor ZMP levels are also lower. […] ZMP was detected in cultured cells via mass spec analysis. Cells were plated in 96-well plates at 25,000 cells per well in 100 μL with either high or low folate RPMI media and incubated overnight at 37 °C with 5% CO2. Cells were treated with inhibitor compounds for 16 hours, 0.5% DMSO final concentration. Growth media was decanted and cells were lysed for 10 min at room temperature with 50 μL per well of 1x Sure Fire Lysis buffer (Perkin Elmer, SureFire kit component). […] Samples were sealed, vortexed for 5 minutes, and placed in the refrigerator for at least 30 minutes. The samples were centrifuged at 4 °C for 10 minutes at 16,600 g. 75 μL of the aqueous layer were transferred to a clean 96-well plate and seal prior to analysis. The LC-MS method utilizes a Shimadzu Prominence 20 A HPLC system connected to an AB Sciex 5500TM or an AB Sciex 6500TM triple quadrupole mass spectrometer. […] […] dUMP were detected using positive ion TurboIonSpray® multiple reaction monitoring mode and the data were processed with AB Sciex MultiQuantTM. Back-calculated ZMP concentrations were fit to a four-parameter logistic equation using ACTIVITYBASE 4.0 to determine EC50 values relative to the maximum observed metabolite levels.

Assay [1] relates to AMPK T172 phosphorylation in MDA-MB-231met2. In words: Western analysis after overnight treatment in tissue culture. The settings on record: 0 to 20 μM, RPMI media. It is filed as cell-based, human. The protocol:
(§1) The levels of total actin, AMPKα and P70S6K are also shown. […] Full images and the croppings used in this figure are shown in Supplemental Figures S4–S13.
(§2) Antibodies were purchased as follows: pAMPK Thr172 (Cell Signaling #2535), p-p70S6 Thr389 (Cell Signaling #9205), total p70S6 (Cell Signaling #2708), total AMPKα (Cell Signaling #2793) and Actin (Sigma #A5441). Frozen tumor samples were lysed with 500 µL ice cold lysis buffer plus Halt protease inhibitor (ThermoFisher #78430) using a Power Gen 125 tissue grinder (Fisher Scientific). Western blots were run as described in the supplemental material.
(§3) Western Blots: Lysis buffer is 0.01 mg/mL Leupeptin, 0.01 mg/mL Trypsin-Chymotrypsin, 0.01 mg/mL TPCK, 0.1 mg/mL Aprotinin, 60 mM β-Gly PO4, 1% Triton-100, 25 mM Tris pH 7.5, 2.5 µM Na2Pyrophosphate, 150 mM NaCl, 0.76 mg/mL TAME, 6.2 mg/mL PNPP, 0.8 mg/mL Benzamidine, 0.2 mg/mL Na3V04, 0.42 mg/mL NaF, 0.5 mg/mL PMSF or PEFA, 1 mM DTT, 15 mM EDTA pH 8.0, 5 mM EGTA pH 8.0, 1 µM Okadaic acid, and 1 µM microcystine. RNA and DNA were degraded by addition of Benzonase (Novagen) with a 30 min incubation on ice. Lysates were cleared by centrifugation at 4 °C for 10 min at 16,000 x g. Protein content was measured using Pierce BCA protein assay kit (Thermo Scientific). Twenty ug of total protein was resolved on a 4-20% Tris HCl Criterion XT precast gel (BioRad) at 100 V for 90 minutes. Transfer electrophoresed proteins to a 0.2 µm nitrocellulose membrane using Trans Blot Turbo System (BioRad). Block membranes for 1 hr at RT in Odyssey blocking buffer (LiCor). Probe overnight 4°C for primary antibodies. Wash blots 3 x 5 min in 20 mL PBS-0.1% Tween-20.

Assay [2] deals with AMPK T172 phosphorylation in NCI-H460. The assay is described as above. It is filed as cell-based, human. The note with it: 0 to 20 μM, RPMI media. As for the experimental part: as §1, §2, §3
Assay [3] concerns P70S6K T389 phosphorylation in MDA-MB-231met2. The description is as above. Type of assay: cell-based, human. The note with it: 0 to 20 μM, RPMI media. The protocol:
as §1, §2, §3

Assay [4] has as its system P70S6K T389 phosphorylation in NCI-H460. Described as above. Type of assay: cell-based, human. The note with it: 0 to 20 μM, RPMI media. The protocol: as §1, §2, §3
The next assay addresses T1, JAK1 (Homo sapiens, UniProt P23458).
T1 construct: purchased CEREP Panlabs (Eurofins)
In words: CEREP protein kinase assay. Type of assay: biochemical.

A further assay has as its target T2, TTK (Homo sapiens, UniProt P33981).
T2 construct: purchased CEREP Panlabs (Eurofins)
T2 sequence (P33981 1-857): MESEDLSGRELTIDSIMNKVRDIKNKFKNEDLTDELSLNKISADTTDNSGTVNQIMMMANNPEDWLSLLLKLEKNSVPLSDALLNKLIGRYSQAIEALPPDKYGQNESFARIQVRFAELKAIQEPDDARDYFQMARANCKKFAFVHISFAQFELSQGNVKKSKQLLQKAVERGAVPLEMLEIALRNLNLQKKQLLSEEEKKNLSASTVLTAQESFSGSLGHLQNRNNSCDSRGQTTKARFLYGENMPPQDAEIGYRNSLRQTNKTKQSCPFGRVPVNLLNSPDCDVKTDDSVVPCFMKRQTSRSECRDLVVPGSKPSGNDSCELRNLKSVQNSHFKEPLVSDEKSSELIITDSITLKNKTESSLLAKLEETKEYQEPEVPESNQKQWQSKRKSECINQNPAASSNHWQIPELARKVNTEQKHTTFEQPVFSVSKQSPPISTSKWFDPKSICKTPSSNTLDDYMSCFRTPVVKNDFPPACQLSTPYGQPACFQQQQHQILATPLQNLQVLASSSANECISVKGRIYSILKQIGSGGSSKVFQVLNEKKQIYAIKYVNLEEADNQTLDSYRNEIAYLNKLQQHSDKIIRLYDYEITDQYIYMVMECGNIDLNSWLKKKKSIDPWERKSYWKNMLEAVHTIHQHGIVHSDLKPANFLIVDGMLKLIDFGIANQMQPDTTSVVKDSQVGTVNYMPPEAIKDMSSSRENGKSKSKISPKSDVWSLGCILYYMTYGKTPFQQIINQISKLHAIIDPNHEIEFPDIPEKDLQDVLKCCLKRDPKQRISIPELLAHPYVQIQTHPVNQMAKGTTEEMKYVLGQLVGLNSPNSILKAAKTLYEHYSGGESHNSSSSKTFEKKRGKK
Kind of assay: CEREP protein kinase assay. It is filed as biochemical.

“Also recorded” adds a separate entry of the source.

T1 sequence (P23458 whole entry): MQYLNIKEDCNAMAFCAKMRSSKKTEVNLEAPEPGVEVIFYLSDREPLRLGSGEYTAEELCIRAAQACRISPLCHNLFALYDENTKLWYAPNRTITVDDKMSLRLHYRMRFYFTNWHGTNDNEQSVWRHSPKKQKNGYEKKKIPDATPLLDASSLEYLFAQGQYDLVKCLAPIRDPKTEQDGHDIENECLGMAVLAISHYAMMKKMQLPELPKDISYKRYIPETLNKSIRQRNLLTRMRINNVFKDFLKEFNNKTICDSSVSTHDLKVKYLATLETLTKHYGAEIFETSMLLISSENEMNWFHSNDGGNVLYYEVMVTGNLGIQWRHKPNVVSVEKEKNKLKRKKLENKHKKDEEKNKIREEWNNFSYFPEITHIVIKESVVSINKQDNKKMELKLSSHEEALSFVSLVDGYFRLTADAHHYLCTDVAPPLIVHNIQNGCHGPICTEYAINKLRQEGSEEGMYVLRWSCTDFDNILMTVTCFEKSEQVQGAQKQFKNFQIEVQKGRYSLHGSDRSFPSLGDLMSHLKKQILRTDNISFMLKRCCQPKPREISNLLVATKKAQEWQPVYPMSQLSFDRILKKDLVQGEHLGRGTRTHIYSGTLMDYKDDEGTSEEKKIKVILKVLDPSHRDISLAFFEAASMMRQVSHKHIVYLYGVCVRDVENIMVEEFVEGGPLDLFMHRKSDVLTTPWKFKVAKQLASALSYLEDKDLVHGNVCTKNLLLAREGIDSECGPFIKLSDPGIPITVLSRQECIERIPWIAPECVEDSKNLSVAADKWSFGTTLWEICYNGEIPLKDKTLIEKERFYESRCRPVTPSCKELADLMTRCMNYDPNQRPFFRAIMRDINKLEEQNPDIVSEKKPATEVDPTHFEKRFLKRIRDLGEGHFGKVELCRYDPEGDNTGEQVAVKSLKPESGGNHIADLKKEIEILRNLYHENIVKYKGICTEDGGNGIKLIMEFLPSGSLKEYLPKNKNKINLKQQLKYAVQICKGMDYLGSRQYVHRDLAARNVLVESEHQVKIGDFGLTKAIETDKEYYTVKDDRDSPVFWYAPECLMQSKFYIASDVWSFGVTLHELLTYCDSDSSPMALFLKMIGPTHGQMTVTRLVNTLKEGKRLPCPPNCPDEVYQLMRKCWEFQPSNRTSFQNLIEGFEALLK

As for `O=c1[nH]ccc2cc(F)c(NS(=O)(=O)c3ccc(N4CC[C@@H](O)C4)s3)cc12` [LSN3213128, N-(6-Fluoro-1-oxo-1,2-dihydroisoquinolin-7-yl)-5-[(3R)-3-hydroxypyrrolidin-1-yl]thiophene-2-sulfonamide], the “dUMP levels in tissue culture” value in the assay with A9 cells (A9) was “No changes; also recorded: does not alter”. Besides, the “peak intracellular ZMP levels” value in the assay on A9 cells (A9 cells, calculated with 4 pL cell volume) was 6,500 μM. The “AMPK T172 phosphorylation” value in assay [1] is “expected increase”. Also, the “phosphorylated AMPK T172” value in assay [2] is “not increased”. Besides, the “P70S6K T389 phosphorylation” value in assay [3] is given as “corresponding decrease”. For the same compound, the “phosphorylation of P70S6K T389” value in assay [4] is listed as “inhibits the phosphorylation”. The inhibition at 0.2 µM is -1.48% against JAK1 (@ 0.2 uM) and -4.62% at TTK (@ 0.2 uM). Moreover, the figures for the inhibition at 2 µM on JAK1 (@ 2 uM) and on TTK (@ 2 uM) were 5.53% and 6.44%, respectively. The values for the inhibition at 20 µM against JAK1 (@ 20 uM) and against TTK (@ 20 uM) were 46.6% and 18.6%, respectively.

What is called inhibition is the change of the read-out against control, counted positive when it falls.
